The values that follow come from US20240308985A1 (Psy Therapeutics, Inc., priority 2021, published 2024).

The target of this assay is Monoacylglycerol Lipase (MAGL) (Homo sapiens (Human), UniProt Q99685). In words: MAGL inhibition potency (IC50) assay with 4NPA substrate. It counts as biochemical. The note with it: Method 14: Reaction Biology MAGL enzyme, 6 nM. From the text: The potency of certain compounds for inhibiting MAGL were obtained using the following assays. The monoacylglycerol lipase inhibitor screening assay kit from Cayman Chemical was used to measure the MAGL potency for the compounds in Table 6 and Table 7. Cayman's Monoacylglycerol Lipase Inhibitor Screening Assay provides a method for screening human MAGL inhibitors. MAGL hydrolyzes 4-nitrophenylacetate resulting in a yellow product, 4-nitrophenol, with an absorbance of 405-412 nm. MAGL Inhibition was measured by the following assay. Monoacylglycerol Lipase (MAGL) inhibition was measured using recombinant MAGL enzyme (aa 2-303 RBC, internal preparation) and the substrate 4-Nitrophenyl acetate (4NPA) (Sigma-Aldrich, N8130). Hydrolysis of the substrate in the presence of the enzyme was measured by absorbance at 405 nm. 10 μL of assay buffer (10 mM Tris pH 7.5, 1 mM EDTA, 0.9% DMSO) was added to a black 384-well non-binding plate with clear bottom (Greiner, 781906) for each reaction. […] DMSO control wells were included for reference. A 10.8 nM (1.8×) MAGL mix in assay buffer was prepared, with 25 μL added to each reaction well, for a final assay concentration of 6 nM. No enzyme wells received 25 μL of buffer. Plate was incubated at room temperature for 30 minutes. 35 mM solution of 4NPA in methanol was prepared daily. A 4.5×4NPA substrate solution was prepared in assay buffer and 10 μL was added to each reaction well, for a final assay concentration of 0.25 mM. Plate was spun for 1 minute at 1000 rpm before measuring absorbance using a CLARIOstar plate reader (BMG Labtech). A kinetic reading at 405 nm was done every minute for 30 minutes. Data was analyzed using the linear slope of the reaction progress curve and the average of the no-enzyme wells (background) was subtracted from the data. The background-subtracted slope data was converted to % activity using the average of wells with enzyme and DMSO vehicle. IC50s were calculated using GraphPad software (Sigmoidal dose response, variable slope equation). […] Table 8 provides potency measurements of MAGL inhibition measured using the Potency Assay of Example 22 above, with the following modifications described in Table C. [table]

Where [1] appears, read: read-out: MAGL Potency (Detection Method).
Where [2] appears, read: read-out: Potency (MAGL inhibition).

Molecules are shown by their SMILES. Like-named read-outs stand apart in the source and are kept apart here.

Monoacylglycerol Lipase (MAGL), sequence (Q99685 2-303): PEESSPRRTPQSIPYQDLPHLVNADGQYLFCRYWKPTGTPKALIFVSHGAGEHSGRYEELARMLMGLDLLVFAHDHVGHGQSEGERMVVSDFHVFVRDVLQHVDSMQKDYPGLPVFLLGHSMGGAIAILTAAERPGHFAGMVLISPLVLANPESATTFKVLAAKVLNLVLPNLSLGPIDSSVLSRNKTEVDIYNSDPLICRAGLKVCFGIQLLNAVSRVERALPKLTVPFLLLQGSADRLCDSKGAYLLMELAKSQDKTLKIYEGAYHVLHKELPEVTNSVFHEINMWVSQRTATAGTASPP

With `Cc1cc(C2CC3(C2)CN(C(=O)c2cc(O)ccc2F)C3)n(-c2ccccc2C(F)(F)F)n1` [Compound 366, (2-fluoro-5-hydroxyphenyl)(6-{3-methyl-1-[o-(trifluoromethyl)phenyl]-5-pyrazolyl}-2-aza-2-spiro[3.3]heptyl)methanone], under setting [1], the IC50 is under 50 nM.

Turning to `Cc1cc(C2CC3(C2)CN(C(=O)c2cc4c(cc2F)CCO4)C3)n(-c2ccccc2C)n1` [Compound 368], the IC50 under setting [2] is over 10000 nM. For the compound `Cc1cc(C2CC3(C2)CN(C(=O)c2c(F)ccc(O)c2C)C3)n(-c2ccccc2C)n1` [Compound 370], under setting [1], the IC50 lay in the range of 500 to 1000 nM. As to `Cc1cc(C2CC3(C2)CN(C(=O)c2cc(O)c(C)cc2F)C3)n(-c2ccccc2C)n1` [Compound 371, (2-fluoro-5-hydroxy-4-tolyl){6-[3-methyl-1-(o-tolyl)-5-pyrazolyl]-2-aza-2-spiro[3.3]heptyl}methanone], under setting [1], the IC50 was in the range of 50 to 150 nM.

As to `Cc1ccccc1-c1c(C)cnn1C1CC2(C1)CN(C(=O)c1cc(O)ccc1F)C2` [Compound 373, (2-fluoro-5-hydroxyphenyl){6-[4-methyl-5-(o-tolyl)-1-pyrazolyl]-2-aza-2-spiro[3.3]heptyl}methanone], the IC50 under setting [1] fell in the range of 150 to 500 nM. In the case of `Cc1cc(C2CC3(C2)CN(C(=O)c2ccc(F)cc2OC2CC2)C3)n(-c2ccccc2C)n1` [Compound 374, (2-cyclopropoxy-4-fluorophenyl) {6-[3-methyl-1-(o-tolyl)-5-pyrazolyl]-2-aza-2-spiro[3.3]heptyl}methanone], under setting [1], the IC50 was in the range of 150 to 500 nM. Regarding `O=C(c1cc(O)ccc1F)N1CC2(CC(n3ncnc3-c3ccccc3Cl)C2)C1` [Compound 376, {6-[5-(o-chlorophenyl)-1H-1,2,4-triazol-1-yl]-2-aza-2-spiro[3.3]beptyl}(2-fluoro-5-hydroxyphenyl)methanone], under setting [1], the IC50 fell in the range of 50 to 150 nM.

As to `O=C(c1cc(O)ccc1F)N1CC2(CC(c3nnc(-c4ccccc4Cl)o3)C2)C1` [Compound 377, {6-[5-(o-chlorophenyl)-1,3,4-oxadiazol-2-yl]-2-aza-2-spiro[3.3]heptyl}(2-fluoro-5-hydroxyphenyl)methanone], the IC50 under setting [1] fell in the range of 500 to 1000 nM. Regarding `Cc1ccccc1-c1nnc(C2CC3(C2)CN(C(=O)c2cc(O)ccc2F)C3)o1` [Compound 378, (2-fluoro-5-hydroxyphenyl){6-[5-(o-tolyl)-1,3,4-oxadiazol-2-yl]-2-aza-2-spiro[3.3]heptyl}methanone], the IC50 under setting [1] was 500 to 1000 nM. Turning to `Cc1cc(F)ccc1-n1c(C)cnc1C1CC2(C1)CN(C(=O)c1cc(O)ccc1F)C2` [Compound 380, (2-fluoro-5-hydroxyphenyl){6-[1-(4-fluoro-2-tolyl)-5-methyl-2-imidazolyl]-2-aza-2-spiro[3.3]heptyl}methanone], the IC50 under setting [1] lay in the range of 1000 to 5100 nM. Consider `Cc1ccccc1-c1ccn(C(=O)C2CC3(C2)CN(C(=O)c2cc(O)ccc2F)C3)n1` [Compound 381, {2-(2-fluoro-5-hydroxybenzoyl)-2-aza-6-spiro[3,3]heptyl}[3-(o-tolyl)-1-pyrazolyl]methanone], for which the IC50 under setting [1] was 150 to 500 nM. As for `O=C(c1cc(O)ccc1F)N1CC2(CC(C(=O)N3CCOCC3)C2)C1` [Compound 384], the IC50 under setting [2] is over 10000 nM. Consider `O=C(c1cc(O)ccc1F)N1CC2(CC(C(=O)N3CCCC3)C2)C1` [Compound 388], for which the IC50 under setting [2] was over 10000 nM. In the case of `O=C(c1cc(O)ccc1F)N1CC2(CC(C(=O)N3CCC4(COC4)C3)C2)C1` [Compound 391], under setting [2], the IC50 is over 10000 nM. For the compound `O=C(NCC1COC1)C1CC2(C1)CN(C(=O)c1cc(O)ccc1F)C2` [Compound 395], the IC50 under setting [2] was over 10000 nM. For the compound `O=C(c1cc(O)ccc1F)N1CC2(CC(C(=O)N3CCC4(CCCO4)C3)C2)C1` (stereo not drawn) [Compound 400], the IC50 under setting [2] was over 10000 nM.

For the compound `O=C(c1cc(O)ccc1F)N1CC2(CC(c3nccn3-c3ccccc3)C2)C1` [Compound 401, (2-fluoro-5-hydroxyphenyl){6-(1-phenyl-2-imidazolyl)-2-aza-2-spiro[3.3]heptyl}methanone], the IC50 under setting [1] lay in the range of 500 to 1000 nM. As to `Cc1cc(C2CC3(C2)CN(C(=O)c2ccc4c(c2)OCC4)C3)n(-c2ccccc2C)n1` [Compound 402], the IC50 under setting [2] was over 10000 nM.
